Results taken from ChEMBL document CHEMBL1201862, “PubChem BioAssay data set” (2004).
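How tested: cells in 96-well plates exposed to compound for 48 hours at five concentrations. Here, GI50 denotes the concentration required for 50% inhibition of growth.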 Activity calls are given as the source filed them. Rule as the data show it: active = GI50 up to about 1.1 µM and inactive = higher.

What was measured:
Assay in all cases: growth of human tumour cells (NCI), 48 h
M14 = test system: M14
NCI/ADR-RES = test system: NCI/ADR-RES
MCF7 = test system: MCF7
NCI-H522 = test system: NCI-H522
COLO 205 = test system: COLO 205
MDA-MB-435 = test system: MDA-MB-435
RPMI-8226 = test system: RPMI-8226
K562 = test system: K562
LOX IMVI = test system: LOX IMVI
PC-3 = test system: PC-3
SF-295 = test system: SF-295
MOLT-4 = test system: MOLT-4
UO-31 = test system: UO-31
HCT-15 = test system: HCT-15
OVCAR-3 = test system: OVCAR-3
RXF 393 = test system: RXF 393
MDA-N = test system: MDA-N
NCI-H226 = test system: NCI-H226
U-251 = test system: U-251
EKVX = test system: EKVX

SMILES | GI50 (M14) | GI50 (NCI/ADR-RES) | GI50 (MCF7) | GI50 (NCI-H522) | GI50 (COLO 205) | GI50 (MDA-MB-435) | GI50 (RPMI-8226) | GI50 (K562) | GI50 (LOX IMVI) | GI50 (PC-3) | GI50 (SF-295) | GI50 (MOLT-4) | GI50 (UO-31) | GI50 (HCT-15) | GI50 (OVCAR-3) | GI50 (RXF 393) | GI50 (MDA-N) | GI50 (NCI-H226) | GI50 (U-251) | GI50 (EKVX)
COc1ccc(C(=O)/C=C/c2ccc(O)c(O)c2F)c(OC)c1 | 7.71 µM (inactive) | 4.62 µM (inactive) | 0.279 µM (active) | 0.327 µM (active) | 11.5 µM (inactive) | 3.58 µM (inactive) | 1.85 µM (inactive) | 2.56 µM (inactive) | 5.61 µM (inactive) | 3.14 µM (inactive) | 5.41 µM (inactive) | 1.12 µM (inactive) | 2.56 µM (inactive) | 0.34 µM | 1.05 µM (active) | 4.35 µM (inactive) | 3.23 µM (inactive) | 11.4 µM (inactive) | 2.94 µM (inactive) | 9.08 µM (inactive)
Cc1ccc(S(=O)(=O)N/N=C2/CCCOC2)cc1 | > 100 µM (inactive) | > 100 µM (inactive) | > 100 µM (inactive) | > 100 µM (inactive) | > 100 µM (inactive) | > 100 µM (inactive) | > 100 µM (inactive) | > 100 µM (inactive) | > 100 µM (inactive) | > 100 µM (inactive) | > 100 µM (inactive) | > 100 µM (inactive) | > 100 µM (inactive) | > 100 µM | > 100 µM (inactive) | > 100 µM (inactive) | > 100 µM (inactive) | > 100 µM (inactive) | > 100 µM (inactive) | > 100 µM (inactive)
CCCc1[nH]nc(C(N)=O)c1/N=N/N(C)C | > 100 µM (inactive) | 91 µM (inactive) | 20.1 µM (inactive) | 17.8 µM (inactive) | 63.2 µM (inactive) | > 100 µM (inactive) | 39.4 µM (inactive) | 2.56 µM (inactive) | 47 µM (inactive) | > 100 µM (inactive) | 57.9 µM (inactive) | 15 µM (inactive) | 1.16 µM (inactive) | 50.4 µM | > 100 µM (inactive) | 41.5 µM (inactive) | > 100 µM (inactive) | 38.9 µM (inactive) | 55.8 µM (inactive) | 26.3 µM (inactive)
COc1ccc2c(-c3cc4ccccc4o3)cc(=O)oc2c1 | 75.7 µM (inactive) | 24.7 µM (inactive) | > 67.3 µM (inactive) | 37.2 µM (inactive) | > 100 µM (inactive) | > 100 µM (inactive) | > 88.7 µM (inactive) | > 100 µM (inactive) | 60.7 µM (inactive) | 73.5 µM (inactive) | 22.9 µM (inactive) | > 100 µM (inactive) | 15 µM (inactive) | > 100 µM | 16.6 µM (inactive) | 18 µM (inactive) | > 76.6 µM (inactive) | 58.5 µM (inactive) | 24.3 µM (inactive) | 48.6 µM (inactive)
COc1ccc(NC2C(=O)C3(C)CCC2C3(C)C)cc1 (configuration not stated) | > 100 µM (inactive) | > 100 µM (inactive) | > 100 µM (inactive) | 79.4 µM (inactive) | > 100 µM (inactive) | > 100 µM (inactive) | 52.2 µM (inactive) | 63.7 µM (inactive) | > 100 µM (inactive) | 97.7 µM (inactive) | > 100 µM (inactive) | 67.8 µM (inactive) | 54.7 µM (inactive) | > 100 µM | > 100 µM (inactive) | > 100 µM (inactive) | > 100 µM (inactive) | 67.8 µM (inactive) | > 100 µM (inactive) | > 100 µM (inactive)
CC1(C)OC2COC3([C@@H]4OC(C)(C)O[C@@H]4CO)OC(C)(C)OC3C2O1 (some centres not stated) | > 100 µM (inactive) | > 100 µM (inactive) | > 100 µM (inactive) | – | > 100 µM (inactive) | > 100 µM (inactive) | > 100 µM (inactive) | > 100 µM (inactive) | > 100 µM (inactive) | > 100 µM (inactive) | > 100 µM (inactive) | – | > 100 µM (inactive) | > 100 µM | > 100 µM (inactive) | > 100 µM (inactive) | > 100 µM (inactive) | > 100 µM (inactive) | > 100 µM (inactive) | > 100 µM (inactive)
Cn1c(=O)sc2cc(C(=S)N3CCN(c4ccccc4)CC3)ccc21 | > 100 µM (inactive) | 50 µM (inactive) | 64.3 µM (inactive) | – | > 100 µM (inactive) | > 100 µM (inactive) | > 100 µM (inactive) | > 100 µM (inactive) | 53.5 µM (inactive) | 31.3 µM (inactive) | 19.9 µM (inactive) | > 100 µM (inactive) | – | 39.4 µM | 54.8 µM (inactive) | 30.5 µM (inactive) | > 100 µM (inactive) | 55.3 µM (inactive) | 16 µM (inactive) | 44.3 µM (inactive)
OCC(Cn1cncn1)(c1ccc(F)cc1F)n1cncn1 (configuration not stated) | > 100 µM (inactive) | > 100 µM (inactive) | > 100 µM (inactive) | > 100 µM (inactive) | > 100 µM (inactive) | > 100 µM (inactive) | > 100 µM (inactive) | > 100 µM (inactive) | > 100 µM (inactive) | > 100 µM (inactive) | > 100 µM (inactive) | > 100 µM (inactive) | > 100 µM (inactive) | > 100 µM | > 100 µM (inactive) | > 100 µM (inactive) | > 100 µM (inactive) | > 100 µM (inactive) | > 100 µM (inactive) | –
O/N=C1/CCCCC1NO (configuration not stated) | > 100 µM (inactive) | > 100 µM (inactive) | > 100 µM (inactive) | – | > 100 µM (inactive) | > 100 µM (inactive) | > 100 µM (inactive) | > 100 µM (inactive) | > 100 µM (inactive) | > 100 µM (inactive) | > 100 µM (inactive) | > 100 µM (inactive) | > 100 µM (inactive) | > 100 µM | > 100 µM (inactive) | > 100 µM (inactive) | > 100 µM (inactive) | > 100 µM (inactive) | > 100 µM (inactive) | > 100 µM (inactive)
NC1NCCC(=O)N1CCc1c[nH]c2ccccc12 (configuration not stated) | 19.2 µM (inactive) | 24.5 µM (inactive) | 15.5 µM (inactive) | 87.5 µM (inactive) | 18.3 µM (inactive) | 17 µM (inactive) | 37.2 µM (inactive) | 22.4 µM (inactive) | 12.9 µM (inactive) | 19.3 µM (inactive) | 24.5 µM (inactive) | – | 41.6 µM (inactive) | 19.5 µM | 20.9 µM (inactive) | 22.8 µM (inactive) | 17.6 µM (inactive) | 28.7 µM (inactive) | 65.2 µM (inactive) | 28.1 µM (inactive)
COC(=O)c1ccccc1Nc1ccccc1C(=O)OC | > 100 µM (inactive) | > 100 µM (inactive) | > 100 µM (inactive) | 32.1 µM (inactive) | > 100 µM (inactive) | > 100 µM (inactive) | 64.1 µM (inactive) | > 100 µM (inactive) | 56.1 µM (inactive) | 39.5 µM (inactive) | 39.4 µM (inactive) | > 100 µM (inactive) | – | > 100 µM | 79.6 µM (inactive) | 68.7 µM (inactive) | > 100 µM (inactive) | 23.7 µM (inactive) | 83.6 µM (inactive) | > 100 µM (inactive)
CN1C(=O)CN(NC(=O)C2=C(O)c3ccc(Br)cc3S(=O)(=O)N2)C1=S | > 100 µM (inactive) | > 100 µM (inactive) | 53.7 µM (inactive) | 75.7 µM (inactive) | > 100 µM (inactive) | > 100 µM (inactive) | > 100 µM (inactive) | 49.2 µM (inactive) | > 100 µM (inactive) | > 100 µM (inactive) | > 100 µM (inactive) | > 100 µM (inactive) | > 100 µM (inactive) | > 100 µM | – | > 100 µM (inactive) | 45.3 µM (inactive) | > 100 µM (inactive) | > 100 µM (inactive) | > 100 µM (inactive)
Cc1nc2c(cc1C(=O)NN)c(=O)n(C)c(=O)n2C | > 100 µM (inactive) | > 100 µM (inactive) | > 100 µM (inactive) | – | > 100 µM (inactive) | > 100 µM (inactive) | > 100 µM (inactive) | > 100 µM (inactive) | – | > 100 µM (inactive) | > 100 µM (inactive) | > 100 µM (inactive) | > 100 µM (inactive) | > 100 µM | > 100 µM (inactive) | > 100 µM (inactive) | > 100 µM (inactive) | > 100 µM (inactive) | > 100 µM (inactive) | > 100 µM (inactive)
CCCOc1ccc(/C=C/C2=[N+](CCO)CCO2)cc1 | > 100 µM (inactive) | > 100 µM (inactive) | > 100 µM (inactive) | > 100 µM (inactive) | > 100 µM (inactive) | > 100 µM (inactive) | > 100 µM (inactive) | > 100 µM (inactive) | – | > 100 µM (inactive) | > 100 µM (inactive) | > 100 µM (inactive) | > 100 µM (inactive) | > 100 µM | > 100 µM (inactive) | > 100 µM (inactive) | > 100 µM (inactive) | > 100 µM (inactive) | > 100 µM (inactive) | > 100 µM (inactive)
Clc1ccc(/C(=C/c2ccccc2)Cn2ccnc2)cc1 | 21.9 µM (inactive) | 20.4 µM (inactive) | 20.4 µM (inactive) | 11.9 µM (inactive) | 18.6 µM (inactive) | 19.9 µM (inactive) | 18.2 µM (inactive) | 5.42 µM (inactive) | 19.2 µM (inactive) | 13.6 µM (inactive) | 12.7 µM (inactive) | 13.6 µM (inactive) | 3.39 µM (inactive) | 20.2 µM | – | 14.6 µM (inactive) | 16.8 µM (inactive) | 12.9 µM (inactive) | 21.8 µM (inactive) | 31.9 µM (inactive)
